The text below walks through data of patent US8865745B2, “Pyrazolone derivatives as PDE4 inhibitors” (Takeda GmbH, priority 2007, dated 2014).

The target of one data set is PDE4B1 (Homo sapiens (Human), UniProt Q07343). As to the kind of experiment: Inhibition of PDE4 activity, [3H]cAMP SPA enzyme assay with recombinant PDE4B1. The format is biochemical. As to conditions: recombinant PDE4B1 expressed in SF21 cells, 0.5 μM cAMP, 37° C. As to the method: Method for Measuring Inhibition of PDE4 Activity
PDE4B1, sequence (Q07343 whole entry): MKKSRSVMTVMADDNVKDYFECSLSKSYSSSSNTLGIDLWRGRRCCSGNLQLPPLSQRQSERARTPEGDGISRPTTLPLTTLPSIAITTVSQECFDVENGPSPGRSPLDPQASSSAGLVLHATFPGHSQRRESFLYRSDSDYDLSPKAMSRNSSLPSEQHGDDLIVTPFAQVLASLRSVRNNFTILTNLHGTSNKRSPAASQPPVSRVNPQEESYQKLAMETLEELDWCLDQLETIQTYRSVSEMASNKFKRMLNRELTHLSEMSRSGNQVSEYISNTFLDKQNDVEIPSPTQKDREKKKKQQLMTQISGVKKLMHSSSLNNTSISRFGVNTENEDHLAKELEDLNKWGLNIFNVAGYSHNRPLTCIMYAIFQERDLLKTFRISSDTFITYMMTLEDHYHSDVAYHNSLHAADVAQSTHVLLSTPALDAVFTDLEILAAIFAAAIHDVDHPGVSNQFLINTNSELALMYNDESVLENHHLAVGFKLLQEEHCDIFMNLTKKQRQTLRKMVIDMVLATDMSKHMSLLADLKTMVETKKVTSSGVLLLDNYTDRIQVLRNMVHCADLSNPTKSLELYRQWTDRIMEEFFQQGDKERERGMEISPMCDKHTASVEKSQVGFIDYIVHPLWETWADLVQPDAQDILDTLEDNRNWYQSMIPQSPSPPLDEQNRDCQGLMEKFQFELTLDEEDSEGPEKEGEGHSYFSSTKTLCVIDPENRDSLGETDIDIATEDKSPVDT
The PDE4B1 (GB no. L20966) was a gift of Prof. M. Conti (Stanford University, USA). It was amplified from the original plasmid (pCMV5) via PCR with primers Rb18 (5′-[…]-3′) and Rb10 (5′-[…]-3′) and cloned into the pCR-Bac vector (Invitrogen, Groningen, NL).
The recombinant baculovirus was prepared by means of homologous recombination in SF9 insect cells. The expression plasmids were cotransfected with Baculo-Gold DNA (Pharmingen, Hamburg) using a standard protocol (Pharmingen, Hamburg). Wt virus-free recombinant virus supernatants were selected using plaque assay methods. After that, high-titre virus supernatants were prepared by amplifying 3 times. PDE4B1 was expressed in SF21 cells by infecting 2×10^6 cells/ml with an MOI (multiplicity of infection) between 1 and 10 in the serum-free medium Insect Express Sf9-S2 (PAA, Pasching, Austria). The cells were cultured at 28° C. for 48-72 hours, after which they were pelleted for 5-10 min at 1000×g and 4° C.
The SF21 insect cells were resuspended, at a concentration of approx. 10^7 cells/ml, in ice-cold (4° C.) homogenization buffer (20 mM Tris, pH 8.2, containing the following additions: 140 mM NaCl, 3.8 mM KCl, 1 mM EGTA, 1 mM MgCl2, 10 mM β-mercaptoethanol, 2 mM benzamidine, 0.4 mM Pefablock, […] leupeptin, 10 μM pepstatin A, 5 μM trypsin inhibitor) and disrupted by ultrasonication. The homogenate was then centrifuged for 10 min at 1000×g and the supernatant was stored at −80° C. until subsequent use (see below). The protein content was determined by the Bradford method (BioRad, Munich) using BSA as the standard.
PDE4B1 activity was inhibited by the compounds according to the invention in a modified SPA (scintillation proximity assay) test, supplied by Amersham Biosciences (see procedural instructions “phosphodiesterase [3H]cAMP SPA enzyme assay, code TRKQ 7090”), carried out in 96-well microtitre plates (MTP's). The test volume is 100 μl and contains 20 mM Tris buffer (pH 7.4), 0.1 mg/ml of BSA, 5 mM Mg^2+, 0.5 μM cAMP (including about 50,000 cpm of [3H]cAMP), 1 μl of the respective substance dilution in DMSO and sufficient recombinant PDE (1000×g supernatant, see above) to ensure that 10-20% of the cAMP is converted under the said experimental conditions. […] After a preincubation of 5 min at 37° C., the reaction is started by adding the substrate (cAMP) and the assays are incubated for a further 15 min; after that, they are stopped by adding SPA beads (50 μl). In accordance with the manufacturer's instructions, the SPA beads had previously been resuspended in water, but were then diluted 1:3 (v/v) in water; the diluted solution also contains 3 mM IBMX to ensure a complete PDE activity stop. After the beads have been sedimented (>30 min), the MTP's are analyzed in commercially available luminescence detection devices. The corresponding IC50 values of the compounds for the inhibition of […] activity are determined from the concentration-effect curves by means of non-linear regression.
The inhibitory values determined for the compounds according to the invention follow from the following Table 1, in which the numbers of the compounds correspond to the numbers of the examples.

In the case of `COc1ccc(C2=NN(C3CCN(C(=O)CN4C(=O)COCC4=O)CC3)C(=O)C2(C)C)cc1OC` [Compound 1, 4-(2-{4-[3-(3,4-dimethoxyphenyl)-4,4-dimethyl-5-oxo-4,5-dihydro-1H-pyrazol-1-yl]piperidin-1-yl}-2-oxoethyl)morpholine-3,5-dione], the melting point (usually the temperature, or range, at which the solid turns liquid) was 156 to 157 °C. Also, on PDE4B1, the “PDE4 Inhibition [measured as −logIC50 (mol/l)]” value was 8.29 −logIC50 (mol/l).

`COc1ccc(C2=NN(C3CCN(C(=O)CN4C(=O)CCC4=O)CC3)C(=O)C2(C)C)cc1OC` [Compound 2, 1-(2-{4-[3-(3,4-dimethoxyphenyl)-4,4-dimethyl-5-oxo-4,5-dihydro-1H-pyrazol-1-yl]piperidin-1-yl}-2-oxoethyl)pyrrolidine-2,5-dione] registered a melting point of 218 to 220 °C. Moreover, the “PDE4 Inhibition [measured as −logIC50 (mol/l)]” value on PDE4B1 is recorded as 8.09 −logIC50 (mol/l).

Turning to `CCOc1ccc(C2=NN(C3CCN(C(=O)CN4C(=O)CCC4=O)CC3)C(=O)C2(C)C)cc1OCC` [Compound 3, 1-(2-{-4-[3-(3,4-diethoxyphenyl)-4,4-dimethyl-5-oxo-4,5-dihydro-1H-pyrazol-1-yl]piperidin-1-yl}-2-oxoethyl)pyrrolidine-2,5-dione], the “PDE4 Inhibition [measured as −logIC50 (mol/l)]” value at PDE4B1 is on record as 7.75 −logIC50 (mol/l).

As to `CC1(C)C(=O)N(C2CCN(C(=O)CN3C(=O)CCC3=O)CC2)N=C1c1ccc(OC(F)F)c(OCC2CC2)c1` [Compound 4, 1-[2-(4-{3-[3-(cyclopropylmethoxy)-4-(difluoromethoxy)phenyl]-4,4-dimethyl-5-oxo-4,5-dihydro-1H-pyrazol-1-yl}piperidin-1-yl)-2-oxoethyl]pyrrolidine-2,5-dione], the “PDE4 Inhibition [measured as −logIC50 (mol/l)]” value on PDE4B1 is 7.74 −logIC50 (mol/l).

Take `COc1ccc(C2=NN(C3CCN(C(=O)CN4C(=O)CCC4=O)CC3)C(=O)C2(C)C)cc1OCC1CC1` [Compound 5, 1-[2-(4-{3-[3-(cyclopropylmethoxy)-4-methoxyphenyl]-4,4-dimethyl-5-oxo-4,5-dihydro-1H-pyrazol-1-yl}piperidin-1-yl)-2-oxoethyl]pyrrolidine-2,5-dione]: the melting point was 129 to 131 °C. The “PDE4 Inhibition [measured as −logIC50 (mol/l)]” value at PDE4B1 is on record as 7.15 −logIC50 (mol/l).

For `COc1ccc(C2=NN(C3CCN(C(=O)CN4C(=O)CCC4=O)CC3)C(=O)C2(C)C)cc1OCC(F)(F)F` [Compound 6, 1-[2-(4-{3-[4-methoxy-3-(2,2,2-trifluoroethoxy)phenyl]-4,4-dimethyl-5-oxo-4,5-dihydro-1H-pyrazol-1-yl}piperidin-1-yl)-2-oxoethyl]pyrrolidine-2,5-dione], the “PDE4 Inhibition [measured as −logIC50 (mol/l)]” value on PDE4B1 was 6.84 −logIC50 (mol/l).

Consider `CCOc1cc(C2=NN(C3CCN(C(=O)CN4C(=O)CCC4=O)CC3)C(=O)C2(C)C)ccc1OC` [Compound 7, 1-(2-{4-[3-(3-ethoxy-4-methoxyphenyl)-4,4-dimethyl-5-oxo-4,5-dihydro-1H-pyrazol-1-yl]piperidin-1-yl}-2-oxoethyl)pyrrolidine-2,5-dione], for which the “PDE4 Inhibition [measured as −logIC50 (mol/l)]” value on PDE4B1 is 7.65 −logIC50 (mol/l).

Take `COc1ccc(C2=NN(C3CCN(C(=O)CN4C(=O)CCC4=O)CC3)C(=O)C2(C)C)c2c1OC(C)(C)C2` [Compound 8]: the “PDE4 Inhibition [measured as −logIC50 (mol/l)]” value at PDE4B1 is 8.53 −logIC50 (mol/l).

`COc1ccc(C2=NN(C3CCN(C(=O)CN4C(=O)CCC4=O)CC3)C(=O)C2(C)C)c2c1OC1(CCCC1)C2` [Compound 9]: the “PDE4 Inhibition [measured as −logIC50 (mol/l)]” value at PDE4B1 is 8.23 −logIC50 (mol/l).

Regarding `CCCC1(C)C(=O)N(C2CCN(C(=O)CN3C(=O)CCC3=O)CC2)N=C1c1ccc(OC)c(OC)c1` (centres unmarked) [Compound 11, 1-(2-{4-[3-(3,4-dimethoxyphenyl)-4-methyl-5-oxo-4-propyl-4,5-dihydro-1H-pyrazol-1-yl]piperidin-1-yl}-2-oxoethyl)pyrrolidine-2,5-dione], the “PDE4 Inhibition [measured as −logIC50 (mol/l)]” value on PDE4B1 is reported as 8.08 −logIC50 (mol/l).

Consider `CCC1(C)C(=O)N(C2CCN(C(=O)CN3C(=O)CCC3=O)CC2)N=C1c1ccc(OC)c(OC)c1` (centres unmarked) [Compound 12, 1-(2-{4-[3-(3,4-dimethoxyphenyl)-4-ethyl-4-methyl-5-oxo-4,5-dihydro-1H-pyrazol-1-yl]piperidin-1-yl}-2-oxoethyl)pyrrolidine-2,5-dione], for which the “PDE4 Inhibition [measured as −logIC50 (mol/l)]” value on PDE4B1 was 7.46 −logIC50 (mol/l).

`COc1ccc(C2=NN(C3CCN(C(=O)CN4C(=O)CCC4=O)CC3)C(=O)C23CCCC3)cc1OC` [Compound 13, 1-(2-{4-[4-(3,4-dimethoxyphenyl)-1-oxo-2,3-diazaspiro[4.4]non-3-en-2-yl]piperidin-1-yl}-2-oxoethyl)pyrrolidine-2,5-dione]: at PDE4B1, the “PDE4 Inhibition [measured as −logIC50 (mol/l)]” value is listed as 7.79 −logIC50 (mol/l).

For the compound `COc1ccc(C2=NN(C3CCN(C(=O)CN4C(=O)c5ccccc5C4=O)CC3)C(=O)C2(C)C)cc1OC` [Compound 14, 2-(2-{4-[3-(3,4-dimethoxyphenyl)-4,4-dimethyl-5-oxo-4,5-dihydro-1H-pyrazol-1-yl]piperidin-1-yl}-2-oxoethyl)-1H-isoindole-1,3(2H)-dione], the “PDE4 Inhibition [measured as −logIC50 (mol/l)]” value at PDE4B1 was 9.06 −logIC50 (mol/l).

On to `COc1ccc(C2=NN(C3CCN(C(=O)CN4C(=O)CCCC4=O)CC3)C(=O)C2(C)C)cc1OC` [Compound 15, 1-(2-{4-[3-(3,4-Dimethoxy-phenyl)-4,4-dimethyl-5-oxo-4,5-dihydro-pyrazol-1-yl]-piperidin-1-yl}-2-oxo-ethyl)-piperidine-2,6-dione], for which, at PDE4B1, the “PDE4 Inhibition [measured as −logIC50 (mol/l)]” value is 7.90 −logIC50 (mol/l).

Consider `COc1ccc(C2=NN(C3CCN(C(=O)CN4CCCC4=O)CC3)C(=O)C2(C)C)cc1OC` [Compound 16, 5-(3,4-dimethoxyphenyl)-4,4-dimethyl-2-{1-[(2-oxopyrrolidin-1-yl)acetyl]piperidin-4-yl}-2,4-dihydro-3H-pyrazol-3-one], for which the melting point lay within 125 to 131 °C. The “PDE4 Inhibition [measured as −logIC50 (mol/l)]” value on PDE4B1 is 7.48 −logIC50 (mol/l).

Take `COc1ccc(C2=NN(C3CCN(C(=O)CN4C(=O)CSCC4=O)CC3)C(=O)C2(C)C)cc1OC` [Compound 17, 4-(2-{4-[3-(3,4-dimethoxyphenyl)-4,4-dimethyl-5-oxo-4,5-dihydro-1′-1-pyrazol-1-yl]piperidin-1-yl}-2-oxoethyl)thiomorpholine-3,5-dione]: the “PDE4 Inhibition [measured as −logIC50 (mol/l)]” value at PDE4B1 is 8.27 −logIC50 (mol/l).

For the compound `COc1ccc(C2=NN(C3CCN(C(=O)CN4C(=O)CS(=O)(=O)CC4=O)CC3)C(=O)C2(C)C)cc1OC` [Compound 18, 4-(2-{-4-[3-(3,4-dimethoxyphenyl)-4,4-dimethyl-5-oxo-4,5-dihydro-1H-pyrazol-1-yl]piperidin-1-yl}-2-oxoethyl)thiomorpholine-3,5-dione 1,1-dioxide], the melting point was in the range of 146 to 148 °C. Moreover, the “PDE4 Inhibition [measured as −logIC50 (mol/l)]” value at PDE4B1 is 8.42 −logIC50 (mol/l).

In turn, `COc1ccc(C2=NN(C3CCN(C(=O)CCN4C(=O)CCC4=O)CC3)C(=O)C2(C)C)cc1OC` [Compound 19, 1-(3-{4-[3-(3,4-Dimethoxy-phenyl)-4,4-dimethyl-5-oxo-4,5-dihydro-pyrazol-1-yl]-piperidin-1-yl}-3-oxo-propyl)-pyrrolidine-2,5-dione] displayed a melting point of 207 to 209 °C. Also, the “PDE4 Inhibition [measured as −logIC50 (mol/l)]” value on PDE4B1 is 7.48 −logIC50 (mol/l).

As to `COc1ccc(C2=NN(C3CCN(C(=O)CN4C(=O)Cc5ccccc54)CC3)C(=O)C2(C)C)cc1OC` [Compound 20, 1-(2-{4-[3-(3,4-Dimethoxy-phenyl)-4,4-dimethyl-5-oxo-4,5-dihydro-pyrazol-1-yl]-piperidin-1-yl}-2-oxo-ethyl)-1,3-dihydro-2H-indol-2-one], the melting point worked out at 178 °C. For the same compound, on PDE4B1, the “PDE4 Inhibition [measured as −logIC50 (mol/l)]” value is reported as 8.24 −logIC50 (mol/l).
